# Entries after “also recorded” stand apart in the source; their conditions may differ.
# What was measured:
# [1] = target: T1, MrgC11 (mouse MrgprC11) (Mus musculus, UniProt Q8CIP3); assay: Calcium imaging of cells transfected with the GPCR (Table 1); format: cell-based; conditions: capsaicin 3 μM
# T1 construct: expressed in transfected cells; host or cells: HeLa cells
# T1 sequence (Q8CIP3 1-322): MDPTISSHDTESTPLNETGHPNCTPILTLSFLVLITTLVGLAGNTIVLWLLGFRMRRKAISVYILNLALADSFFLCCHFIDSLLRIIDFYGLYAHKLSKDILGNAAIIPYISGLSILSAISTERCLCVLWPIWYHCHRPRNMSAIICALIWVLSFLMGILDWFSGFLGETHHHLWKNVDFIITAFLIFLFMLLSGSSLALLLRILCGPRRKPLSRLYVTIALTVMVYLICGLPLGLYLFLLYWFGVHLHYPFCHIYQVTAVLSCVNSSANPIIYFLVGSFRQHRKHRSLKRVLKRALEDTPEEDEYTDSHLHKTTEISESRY
# [2] = target: T2, MrgA3 (mouse MrgprA3) (Mus musculus, UniProt Q91WW3); assay: as above; format: cell-based; conditions: FIG. 7c: CQ 100 μM, QWF 100 μM
# T2 construct: expressed in transfected cells; host or cells: HeLa cells, pcDNA3.1(-)
# T2 sequence (Q91WW3 1-302): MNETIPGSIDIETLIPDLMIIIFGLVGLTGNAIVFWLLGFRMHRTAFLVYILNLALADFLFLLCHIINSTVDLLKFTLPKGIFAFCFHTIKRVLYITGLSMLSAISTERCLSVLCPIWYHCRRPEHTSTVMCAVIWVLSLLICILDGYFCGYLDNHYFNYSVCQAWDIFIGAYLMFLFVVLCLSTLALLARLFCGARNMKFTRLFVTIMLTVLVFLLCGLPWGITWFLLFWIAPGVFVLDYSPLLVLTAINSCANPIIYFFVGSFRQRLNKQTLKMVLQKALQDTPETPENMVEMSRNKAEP
# Method: Human NK1 cDNA was obtained from LIFE Technologies, PCR cloned with Xho I-Hind III ends and cloned into pcDNA3.1(−). Mouse NK2 and NK3 expression-ready vectors were obtained from […] (Piscataway, N.J.). All other Mrgprs (human MRGPRX1, human MRGPRX2, human MRGPRX3, human MRGPRX4, mouse MrgprA2a, mouse MrgprA2b, mouse MrgprA3, mouse MrgprA4, mouse MrgprA9, mouse MrgprA10, mouse MrgprB4 and mouse MrgprB5) were cloned by PCR from genomic DNAs and inserted into pcDNA3.1 (−).
# 10 μg of expression vector (human MRGPRX2, mouse MrgprA1 or NK1) and 10 μl of LIPOFECTAMINE 2000 transfection reagent were diluted into 0.5 ml of DMEM and separately left at room temperature (RT) for 5 min. They were then mixed and incubated at RT for 20 minutes prior to being added to HeLa cells. HeLa cells were grown to confluence, trypsinized and 1×10^6 cells were pelleted in a 15 ml tube by centrifugation at 1000 rpm for 5 minutes. The DMEM-LIPOFECTAMINE 2000-DNA mixture (1 ml) was then added to the cell pellet, suspended and incubated at RT for 5 minutes. 2 ml of complete DMEM with 10% FBS without antibiotics were added to the tube, mixed by inverting the tube, plated into a 96-well glass bottom plate at 50,000 cells/well, and placed in a 37° C. CO2 incubator for 3 hours. HeLa cells transfected with salmon sperm DNA were plated as a control. The medium was changed after 3 hours and left in the incubator. 24 hours after transfection, the medium in the wells was removed and 100 μl of complete DMEM containing 2 μM of FURA-2 were added to each well and left at room temperature in the dark for 1 hr.
# Calcium imaging was performed immediately after loading cells with Fura-2, using a ZEISS Axiovert 200M microscope platform equipped with a flipping filter wheel for ratiometric imaging. Axiovision software, version 4.6 was used for calcium image analysis of the cells excited at 340 nm and 380 nm. Agonists were added at 15 seconds after the start of the excitation procedure. Antagonists were added five minutes before imaging with the agonists. Images were taken every 5 seconds, including at zero time, during a 90 second period or longer if required. The software later analyzed all images taken during each excitation period. Ratiometric changes were measured in 10-20 cells in each individual experiment. An average of the fluorescence of the cells in each image was calculated and plotted against time in seconds.
# [3] = system: WT DRGs; assay: DRG culture and calcium imaging, WT mice; format: cell-based, mouse
# Method: Cervical to lumbar dorsal root ganglia (DRG) from C57/B6 or NK1 mice (1 month old) were dissected and maintained in DMEM (GIBCO, Langley, Okla., USA), containing […] L-glutamine (FISHER […], Pittsburgh, Pa., USA), 10% heat inactivated fetal bovine serum (GIBCO, Langley, Okla., USA), 5000 U/ml penicillin and 5000 μg/ml streptomycin (FISHER […], Pittsburgh, Pa., USA). Enzymatic digestion was carried out with 1 mg collagenase in 1 ml dispase (ROCHE Applied Sciences, IN, USA), at 37° C. for 70 min. The collagenase/dispase solution was removed, and DRGs were washed and suspended in DMEM containing 125 U DNAse (SIGMA, St Louis, USA) within which the ganglia were mechanically triturated using fire-polished glass pipettes. […] Cells were evaluated using a NIKON Eclipse Ti inverted microscope equipped with an Exi Aqua CCD camera (QIMAGING, British Columbia, Canada). Ca^2+ flux fluorescence was measured as an […] ratio at 340 nm and 380 nm (F340/380) (Lambda DG4, Sutter Instruments, Novato, Calif., US). The 340/380 ratiometric images were analyzed using NIKON Elements AR Software (NIKON, Melville, N.Y. USA). […]
Substance,activation of mouse MrgprC11 by the substance (in words) [1],inhibition of MrgprA3 activation by chloroquine (CQ) [2],decrease of the response of WT DRGs to compound 48/80 [3]
SLIGRL: tethered hexapeptide ligand of mouse PAR2 (SEQ ID NO: 7),activates,–,–
Boc-Gln-D-Trp(Formyl)-Phe benzyl ester trifluoroacetate [QWF],–,does not affect; also recorded: does not inhibit,significantly decreases

# Source: patent publication US10426815B2, “Prevention and treatment of itch with an MRGPR antagonist” (THE GENERAL HOSPITAL CORPORATION, priority 2015, dated 2019)
